One series relates to HIV. The settings on record: literature; cited from earlier work.
For another series, the system named is HSV. The conditions noted are these: literature; cited from earlier work.
For series [1], the target named is reverse transcriptase of human immunodeficiency virus (Human immunodeficiency virus type 1 group M subtype B, UniProt P03366). The settings on record: tested as the 5′-triphosphate; cited from earlier work.
Series [2] relates to HBV. Nature of the series: Cell culture assay for anti-HBV activity (2.2.15 cells, HBV DNA in medium by Southern blot). The format is cell-based, Hepatitis B virus. The settings on record: for EC50: read-out: Anti-HBV EC50; for Antiviral activity (in words): virus not named. An excerpt:
We follow the protocol described by Korba and Gerin(Antiviral Res., 1992, 19:55) and Pai et al. (Antimicrobial Agents Chemother., 1996, 40:380) which is used widely in the field. The HepG 2 2.2.15 cells contain a stably integrated HBV genome, the transcript from which serves as a template for viral replication. The cells produce virions which are elaborated into the medium. The production of the virion DNA is monitored by analysis of medium by Southern blotting. Drugs which inhibit viral replication reduce the levels of virion DNA in the medium, relative to controls.
Confluent cells in 24 well tissue culture dishes are treated with test compounds starting at 1 nM and extending logarithmically to 10 μM (1 nM, 3.2, 10 nM, 32, 100 nM, 1 μM, 10 μM […]). Medium is changed […] every 3 days and DNA extracted from the 3, 6, and […] day samples. The virions are concentrated by polyethylene glycol precipitation (equal volume addition of PEG 8000). After cooling on ice the samples are spun and the pellets treated with SDS and Proteinase K followed by Phenol:Chloroform extraction and ethanol precipitation of the DNA. The DNA is analyzed for HBV sequences by Southern hybridization. The probe used for the analysis is a ^32P labeled Eco RI fragment from the HBV clone described by Korba et al. 3TC is used as a positive control compound with known activity against HBV.
System: The most widely used system for the study of anti-HBV agents is the hepatoma cell culture system with the HBV genome. These cells are designated as the 2.2.15 cells, AD38 cells and AD79 cells. The 2.2.15 cells were generated by the transfection of the human hepatoma cells—HepG2 with HBV DNA. (Sells, et al., Proc. Natl. Acad. Sci. USA 84:1005–1009, 1987) HBV viral replication takes place in these cells. The HBV replication can be monitored intracellularly as well as extracellularly in these cells.
Assay for Anti-HBV agents: 2.215 cells are grown in multi-well dishes in RPMI medium supplemented with 4% fetal bovine serum. After 3 to 4 days of growing the cells, they are treated with varying concentrations of the test compound(s). The test compounds are dissolved in DMSO or sterile water. Cultures without the addition of the test compounds serve as controls. The addition of the test compound(s) is repeated at 3-day intervals. The medium is changed and replaced with appropriate concentration of the test compound. At the end of the 9-day treatment period, the culture medium is harvested and processed for viral DNA. The viral DNA thus obtained is analyzed by Southern blot analysis. After the Southern transfer, the blot is subjected to hybridization to an HBV specific probe to detect HBV DNA. The hybriodization is carried out overnight. After the hybridization, free probe is removed by washing of the blots. The specific hybridization is visualized by autoradiography. Inhibition produced by the test compound is calculated with reference to the levels of HBV DNA in the control samples.

For series [3], the system named is murine leukemia virus (MuLV). The settings on record: literature; cited from earlier work.
For a further series, the system named is HSV-1. The settings on record: literature; cited from earlier work.
The subject of the next series is HSV-2. The conditions noted are these: literature; cited from earlier work.
The test system of series [4] is human cytomegalovirus (HCMV). The settings on record: literature; cited from earlier work.
In series [5] the test system is Varicella zoster virus (VZV). The settings on record: literature; cited from earlier work.
The test system of the next series is Epstein Barr virus (EBV). The conditions noted are these: literature; cited from earlier work.
In another series the test system is HIV-1. Kind of series: Anti-HIV evaluation in human PBM cells. The format is cell-based. The settings on record: for EC50: HIV-1. An excerpt:
(§1) Human PBM cells from healthy donors, seronegative for HIV-1 and HBV, are isolated by a single-step Ficoll-Hypaque discontinuous gradient centrifugation and propagated as described previously (Schinazi et al., Antimicrobial Agents Chemother., 1990, 34:1061; 1992, 36:2423; 1993, 37:875). Compounds are screened for activity against HIV-1 and cytotoxicity by a protocol reported previously reported by Schinazi, et al. The prototype strain of HIV-1LAI obtained from the Centers for Disease Control and Prevention, Atlanta, Ga., is used as the standard virus for the studies in human PBM cells.

A further series relates to PBM cells. Kind of series: Cytotoxicity in PBM cells. The format is cell-based, human. The method, then: (§2) We also perform toxicity assays by measuring the inhibition of uptake of […] dye by treated cells. These assays are done in 96 well plates. After the standard 10 day treatment regimen medium is removed and PBS containing MTS dye added to each well. After a 2 hour incubation the absorbance of the metabolized product is measured at 490 nm.
as §1

Another series relates to Vero cells. Kind of series: Cytotoxicity in Vero cells. The format is cell-based. The method, then:
as §2

Series [6] in a line: Cytotoxicity in PBM cells. The format is cell-based, human. The conditions noted are these: human. The method, then: as §2, §1
Series [7] in a line: Cytotoxicity in CEM cells. The format is cell-based. The conditions noted are these: human. The method, then: as §2
The nature of series [8]: Cytotoxicity in Vero cells. The format is cell-based. The settings on record: African green monkey. The method, then: as §2
Series [9] in a line: Cytotoxicity in HepG2 cells. The settings on record: human. The format is cell-based. The method, then:
as §2

In series [10] the test system is HBV. The conditions noted are these: background statement; cited from earlier work.
Setting [11] is: Human immunodeficiency virus 1, PBMC.

SMILES strings stand for the structures. Like-named read-outs stand apart in the source and are kept apart here.

The source of these data is US7094770B2, “3′-or 2′-hydroxymethyl substituted nucleoside derivatives for treatment of hepatitis virus infections” (Pharmasset, Ltd., priority 2000, dated 2006).

For `Nc1ccn([C@H]2C[C@H](CO)[C@@H](CO)O2)c(=O)n1` [2′,3′-dideoxy-3′-hydroxymethyl-cytidine], the “Activity against HIV (in words)” value with HIV is reported as “good activity”. Besides, in the series on HSV, the “Activity against HSV (in words)” value is on record as “active”.

For `CO[C@H]1C[C@H](n2cc(C)c(=O)[nH]c2=O)O[C@@H]1CO` [3′-O-methylthymidine], the “Activity against HIV (in words)” value in the series on HIV was “inactive”. Further, the “Inhibition of HIV reverse transcriptase (in words)” value in series [1] is reported as “exceptionally potent inhibitor”.

As to `Cc1cn([C@H]2C[C@H](CO)[C@@H](CO)O2)c(=O)[nH]c1=O` [3′-deoxy-3′-hydroxymethylthymidine], in the series on HBV [2] ("we discovered"), the “Activity against HBV (in words)” value is listed as “potent agent”. Besides, the “Activity against HIV (in words)” value in the series on HIV is listed as “devoid of activity”. Further, the “Activity against MuLV (in words)” value in series [3] was “devoid of activity”. Moreover, the “Activity against HSV-1 (in words)” value with HSV-1 is on record as “devoid of activity”. Further, the “Activity against HSV-2 (in words)” value with HSV-2 is given as “devoid of activity”. Also, the “Activity against HCMV (in words)” value in series [4] was “devoid of activity”. Also, the “Activity against VZV (in words)” value in [5] is reported as “devoid of activity”. The “Activity against EBV (in words)” value in the series on Epstein Barr virus (EBV) is on record as “devoid of activity”.

`O=c1[nH]c(=O)n(C2O[C@H](CO)[C@@H](CO)[C@@H]2O)cc1C=CBr` (stereo partly drawn) [5-bromovinyl-1-(3-deoxy-3-hydroxymethyl-D-arabinofuranosyl)-uracil]: the “Activity against HSV (in words)” value with HSV is given as “active”.

In general, EC50 refers to the concentration giving half of the maximal effect. One may read the IC50 as the concentration that gives 50% inhibition. With `Cc1cn(C2CC(CO)C(CO)O2)c(=O)[nH]c1=O` (stereo not shown) [Compound 4 (Series 1)], the EC50 was greater than 10 µM in the series with HBV [2] and 87.7 µM in the series on HIV-1. Moreover, the IC50 in the series on PBM cells and in the series on Vero cells was greater than 100 µM in each case.

As to `Nc1nc(=O)n(C2OC(CO)C(CO)C2F)cc1F` (stereo not shown) [Compound 10 (Series 2)], the “Inhibition of HBV replication (in words)” value with HBV [2] is given as “potent inhibitors”. Besides, the EC50 was 0.13 µM in the series with HBV [2] (Hepatitis B virus) and 3.3 µM in the series on HIV-1 (setting [11]). The “Inhibition of HIV replication (in words)” value in the series with HIV-1 is listed as “potent inhibitors”. This compound had an IC50 in [6] greater than 100 µM. Moreover, the half-maximal inhibitory concentration (IC50) at 10 day in [7], in series [8] and in [9] was greater than 100 µM each time.

Consider `Cc1cn(C2OC(CO)C(CO)C2F)c(=O)nc1N` (stereo not shown) [Compound 11 (Series 2)], for which the EC50 in the series on HBV [2] is less than 10 µM; in the series with HIV-1, 112 µM. Further, the “Antiviral activity (in words)” value with HBV [2] is listed as “moderate activities”. Further, the IC50 with PBM cells and with Vero cells was greater than 100 µM throughout. In series [7], this compound registered an IC50 at 10 day greater than 100 µM.

Consider `Cc1cn(C2OC(CO)C(CO)C2F)c(=O)[nH]c1=O` (stereo not shown) [Compound 12 (Series 2)], for which the EC50 with HBV [2] is less than 10 µM; with HIV-1, greater than 100 µM. Further, the “Antiviral activity (in words)” value with HBV [2] is recorded as “moderate activities”. In the series with PBM cells, this compound displayed an IC50 greater than 100 µM. For the same compound, the IC50 at 10 day in [7] and in [8] was greater than 100 µM each time.

`Nc1ncnc2c1ncn2C1OC(CO)C(CO)C1F` (stereo not shown) [Compound 23 (Series 2)]: the values for the EC50 in the series on HBV [2] (Hepatitis B virus) and in the series with HIV-1 (setting [11]) were 1.04 µM and 95.4 µM, respectively. In series [6], this compound displayed an IC50 greater than 100 µM. Further, the IC50 at 10 day in series [7], in series [8] and in [9] was greater than 100 µM each time.

`Cc1cn(C2CC(CO)N(C)O2)c(=O)[nH]c1=O` (stereo not shown) [Compound 40 (Series 2)]: the concentration for a half-maximal effect (EC50) in the series on HBV [2] is greater than 10 µM; with HIV-1, greater than 100 µM. The IC50 in the series on PBM cells and with Vero cells was greater than 100 µM each time.

With `CN(O)C1C(CO)OC(n2ccc(N)nc2=O)[C@H]1F` (stereo partly shown) [Compound 58 (Series 2)], the “Inhibition of HBV replication (in words)” value with HBV [2] is “potent inhibitors”. Besides, the values for the EC50 in the series on HBV [2] (Hepatitis B virus) and in the series on HIV-1 (setting [11]) were 0.65 µM and 0.09 µM, respectively. For the same compound, the “Inhibition of HIV replication (in words)” value in the series with HIV-1 is given as “potent inhibitors”. In series [6], the midpoint of inhibition, the IC50, lay at 7.4 µM. For the same compound, the IC50 at 10 day in series [7] is 40.2 µM; in series [8] it was roughly 106 µM; in series [9] it was greater than 100 µM.

Take `CN(O)C1C(CO)OC(n2ccc(N)nc2=O)C1F` (stereo not shown) [Compound 59 (Series 2)]: in the series on HBV [2], the “Inhibition of HBV replication (in words)” value is “potent inhibitors”. The EC50 in the series with HBV [2] (Hepatitis B virus) was no more than 10 µM; in the series on HIV-1 (setting [11]), 0.49 µM. In addition, in the series on HIV-1, the “Inhibition of HIV replication (in words)” value is “potent inhibitors”. In addition, in [6], the IC50 is greater than 100 µM. In addition, the IC50 at 10 day in series [7] is 65.3 µM; in series [8], greater than 100 µM; in [9] it was greater than 100 µM.

As to `CN(O)C1C(CO)OC(n2cc(F)c(=O)[nH]c2=O)C1F` (stereo not shown) [Compound 61 (Series 2)], the EC50 was greater than 10 µM in the series with HBV [2] and 52.3 µM in the series on HIV-1. The IC50 in the series on PBM cells and in the series on Vero cells was greater than 100 µM each time.

Consider `Nc1nc(=O)n([C@@H]2O[C@H](CO)[C@@H](O)[C@@H]2F)cc1I` [Fiacitabine], for which, in the series on HBV [10], the “Activity against HBV (in words)” value was “effectively inhibit replication”. In addition, the “Activity against HIV (in words)” value with HIV was “devoid of activity”.

Take `O=c1[nH]c(=O)n([C@@H]2O[C@H](CO)[C@@H](O)[C@@H]2F)cc1I` [Fialuridine]: the “Activity against HBV (in words)” value in the series on HBV [10] is recorded as “effectively inhibit replication”. In addition, the “Activity against HIV (in words)” value with HIV is reported as “devoid of activity”.

Consider `Cc1cn([C@H]2C[C@H](N=[N+]=[N-])[C@@H](CO)O2)c(=O)[nH]c1=O` [Zidovudine], for which the “Activity against HBV (in words)” value with HBV [10] was “inactive”. For the same compound, the “Inhibition of HIV reverse transcriptase (in words)” value in series [1] was “potent inhibitor”.
